Common to all, as to assay type: cell-based
Test [1] addresses T1, TYK2 (Homo sapiens, UniProt P29597). The test can be described thus: TYK2 degradation MSD assay in human PBMC cells. Further details: endogenous in cells; host or cells: human PBMC. The note with it: 4 to 24 hours incubation, read-out: TYK2 MSD DC50 rating in human PBMC. In a few lines: (§1)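 Cells (0.4 million per well) were treated with a 9-point, 1:3 compound series from a top concentration of 1 to 10 μM for 4 to 24 hours at 37° C, then lysed in RIPA with protease/phosphatase inhibitors. Remaining TYK2 was quantified by sandwich MSD immunoassay; DC50 came from four-parameter nonlinear fits.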

Test [2] concerns the target T1, TYK2. Nature of the test: TYK2 degradation MSD assay in EBV-B cells. Further details: endogenous in cells; host or cells: EBV-B cells. Conditions: 4 to 24 hours incubation, read-out: TYK2 MSD DC50 rating in EBV-B. In a few lines:
as §1

Test [3] has as its target T1, TYK2. The test can be described thus: TYK2 degradation MSD assay in OCI-LY10 cells. Also on record: endogenous in cells; host or cells: EBV-B cells. Conditions: 4 to 24 hours incubation, read-out: TYK2 MSD DC50 rating in OCI-LY10. A digest of the protocol: as §1

Molecules are shown by their SMILES.

T1 sequence (P29597 whole entry): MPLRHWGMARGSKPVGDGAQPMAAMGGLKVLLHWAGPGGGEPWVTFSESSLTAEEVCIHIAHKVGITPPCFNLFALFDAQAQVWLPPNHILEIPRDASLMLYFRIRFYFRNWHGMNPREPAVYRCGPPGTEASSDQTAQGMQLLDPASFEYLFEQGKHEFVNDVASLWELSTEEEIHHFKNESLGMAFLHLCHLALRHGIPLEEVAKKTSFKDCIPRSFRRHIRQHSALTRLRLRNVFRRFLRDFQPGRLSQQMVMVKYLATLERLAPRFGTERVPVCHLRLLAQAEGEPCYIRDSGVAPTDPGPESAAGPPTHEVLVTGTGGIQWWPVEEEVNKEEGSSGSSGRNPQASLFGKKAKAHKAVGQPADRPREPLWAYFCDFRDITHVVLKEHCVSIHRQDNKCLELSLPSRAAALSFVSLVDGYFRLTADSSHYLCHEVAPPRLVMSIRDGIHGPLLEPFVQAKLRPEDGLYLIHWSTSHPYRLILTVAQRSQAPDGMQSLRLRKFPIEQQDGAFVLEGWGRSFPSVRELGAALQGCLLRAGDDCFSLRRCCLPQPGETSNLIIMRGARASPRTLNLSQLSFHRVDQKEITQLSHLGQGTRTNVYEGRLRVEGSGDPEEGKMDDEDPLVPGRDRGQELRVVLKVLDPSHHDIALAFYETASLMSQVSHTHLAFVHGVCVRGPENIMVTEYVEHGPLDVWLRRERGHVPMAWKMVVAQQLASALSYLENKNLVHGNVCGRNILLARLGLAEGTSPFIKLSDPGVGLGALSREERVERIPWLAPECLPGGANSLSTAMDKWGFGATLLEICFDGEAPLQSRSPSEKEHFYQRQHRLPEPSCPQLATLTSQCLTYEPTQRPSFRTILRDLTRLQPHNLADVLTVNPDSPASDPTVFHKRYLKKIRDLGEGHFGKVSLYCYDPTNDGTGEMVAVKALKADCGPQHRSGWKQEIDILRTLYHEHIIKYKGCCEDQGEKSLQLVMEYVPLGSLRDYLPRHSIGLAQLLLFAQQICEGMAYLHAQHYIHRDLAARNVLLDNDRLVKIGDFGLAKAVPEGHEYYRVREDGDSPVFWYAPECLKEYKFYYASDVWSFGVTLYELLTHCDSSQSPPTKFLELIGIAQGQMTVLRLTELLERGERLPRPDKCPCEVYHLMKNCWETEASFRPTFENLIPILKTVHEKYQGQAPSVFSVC

Regarding `CNc1cc(Nc2cccn(C3CCN(C(=O)NCCCCc4ccc5c(c4)n(C)c(=O)n5C4CCC(=O)NC4=O)CC3)c2=O)nc2c(C(=O)N[C@@H]3C[C@@H]3F)cnn12` (stereo partly drawn) [Example K330], the DC50 in test [1], in test [2] and in test [3] was more than 100 nM each time.
For `CNc1cc(Nc2cccn(-c3ccc(C(=O)N4CCC(CC#Cc5cccc6c5n(C)c(=O)n6C5CCC(=O)NC5=O)CC4)cn3)c2=O)nn2c(C(=O)N[C@@H]3C[C@@H]3F)cnc12` (stereo partly drawn) [Example K331], the DC50 (in general, the midpoint of the concentration-degradation curve) in test [1] is less than 1 nM; in test [2], more than 100 nM; in test [3], more than 100 nM.
Turning to `Cn1c(=O)n(C2CCC(=O)NC2=O)c2ccc(CN3CCC(CNc4cc(Nc5cccn(-c6ccccn6)c5=O)nn5c(C(=O)N[C@@H]6C[C@@H]6F)cnc45)CC3)cc21` (stereo partly drawn) [Example K360], the 50% degradation concentration (DC50) in test [1], in test [2] and in test [3] was more than 100 nM each time.
With `CNc1cc(-c2cnn(C3CCC(CN(C)C4CCN(c5ccc6c(c5)n(C)c(=O)n6C5CCC(=O)NC5=O)CC4)CC3)c2)nn2c(C(=O)N[C@@H]3C[C@@H]3F)cnc12` (stereo partly drawn) [Example K361], the DC50 in test [1], in test [2] and in test [3] was more than 100 nM each time.
For the molecule `CNc1cc(-c2cnn(C3CCC(CN4CC5(CCN(c6cccc7c6n(C)c(=O)n7C6CCC(=O)NC6=O)CC5)C4)CC3)c2)nn2c(C(=O)NC3C[C@@H]3F)cnc12` (stereo partly drawn) [Example K362], the figures for the DC50 in test [1], in test [2] and in test [3] were less than 1 nM, more than 100 nM and more than 100 nM, respectively.
Consider `CNc1cc(-c2cnn(C3CCC(CN4CC5(CCN(c6ccc7c(c6)n(C)c(=O)n7C6CCC(=O)NC6=O)CC5)C4)CC3)c2)nn2c(C(=O)N[C@@H]3C[C@@H]3F)cnc12` (stereo partly drawn) [Example K363], for which the figures for the DC50 in test [1], in test [2] and in test [3] were less than 1 nM, more than 100 nM and more than 100 nM, respectively.
As to `CNc1cc(-c2cnn(C3CCC(CN4CCC(CN(C)c5ccc6c(c5)n(C)c(=O)n6C5CCC(=O)NC5=O)CC4)CC3)c2)nn2c(C(=O)NC3C[C@@H]3F)cnc12` (stereo partly drawn) [Example K364], the DC50 in test [1], in test [2] and in test [3] was more than 100 nM each time.
Take `Cn1c(=O)n(C2CCC(=O)NC2=O)c2ccc(-c3ccc(CCCNc4cc(Nc5cccn(-c6ccccn6)c5=O)nn5c(C(=O)N[C@@H]6C[C@@H]6F)cnc45)nc3)cc21` (stereo partly drawn) [Example K365]: the DC50 in test [1], in test [2] and in test [3] was more than 100 nM throughout.
Turning to `Cn1c(=O)n(C2CCC(=O)NC2=O)c2ccc(C3CCN(CCCNc4cc(Nc5cccn(-c6ccccn6)c5=O)nn5c(C(=O)N[C@@H]6C[C@@H]6F)cnc45)CC3)cc21` (stereo partly drawn) [Example K366], the half-maximal degradation concentration (DC50) in test [1], in test [2] and in test [3] was more than 100 nM in each case.
Turning to `Cn1c(=O)n(C2CCC(=O)NC2=O)c2ccc(CN3CCC(Nc4cc(Nc5cccn(-c6ccccn6)c5=O)nn5c(C(=O)N[C@@H]6C[C@@H]6F)cnc45)CC3)cc21` (stereo partly drawn) [Example K367], the DC50 in test [1], in test [2] and in test [3] was more than 100 nM each time.
On to `CNc1cc(Nc2cccn(-c3ccc(C(=O)N(C)CCCOCCCc4cccc5c4n(C)c(=O)n5C4CCC(=O)NC4=O)cn3)c2=O)nn2c(C(=O)N[C@@H]3C[C@@H]3F)cnc12` (stereo partly drawn) [Example K369], for which the DC50 in test [1] was 1 to 10 nM; in test [2], more than 100 nM; in test [3], more than 100 nM.
`CNc1cc(Nc2cccn(-c3ccc(C(=O)NCc4ccc(N5CCC(N6CCC(c7ccc8c(c7)n(C)c(=O)n8C7CCC(=O)NC7=O)C6)CC5)cc4)cn3)c2=O)nn2c(C(=O)N[C@@H]3C[C@@H]3F)cnc12` (stereo partly drawn) [Example K370]: the DC50 in test [1] is more than 100 nM; in test [2], less than 1 nM; in test [3], less than 1 nM.
As to `CNc1cc(Nc2cccn(-c3ccc(C(=O)N4CCCC5(C4)CN(c4ncc(C#Cc6ccc7c(c6)n(C)c(=O)n7C6CCC(=N)NC6=O)cn4)C5)cn3)c2=O)nn2c(C(=O)N[C@@H]3C[C@@H]3F)cnc12` (stereo partly drawn) [Example K371], the figures for the DC50 in test [1], in test [2] and in test [3] were more than 100 nM, 1 to 10 nM and more than 100 nM, respectively.
Regarding `CNc1cc(Nc2cccn(-c3ccc(C(=O)N4CC5(C4)CN(c4ccc(-c6ccc7c(c6)n(C)c(=O)n7C6CCC(=O)NC6=O)cc4)C5)cn3)c2=O)nn2c(C(=O)N[C@@H]3C[C@@H]3F)cnc12` (stereo partly drawn) [Example K372], the DC50 in test [1] is more than 100 nM; in test [2], less than 1 nM; in test [3], more than 100 nM.
`CNc1cc(Nc2cccn(-c3ccc(C(=O)N4CCN(CC5CC(c6ccc(-c7ccc8c(c7)n(C)c(=O)n8C7CCC(=O)NC7=O)cc6)C5)CC4)cn3)c2=O)nn2c(C(=O)N[C@@H]3C[C@@H]3F)cnc12` (stereo partly drawn) [Example K373]: the DC50 in test [1] was more than 100 nM; in test [2], less than 1 nM; in test [3] it was more than 100 nM.
On to `CNc1cc(Nc2cccn(-c3ccc(C(=O)N4CCN(CC5CCN(c6ccc(-c7ccc8c(c7)n(C)c(=O)n8C7CCC(=O)NC7=O)cc6)CC5)CC4)cn3)c2=O)nn2c(C(=O)N[C@@H]3C[C@@H]3F)cnc12` (stereo partly drawn) [Example K374], for which the 50% degradation concentration (DC50) is more than 100 nM in test [1], less than 1 nM in test [2] and more than 100 nM in test [3].
As to `CNc1cc(Nc2cccn(-c3ccc(C(=O)N4CCC(CN5CCC56CN(c5ncc(C#Cc7ccc8c(c7)n(C)c(=O)n8C7CCC(=O)NC7=O)cn5)C6)CC4)cn3)c2=O)nn2c(C(=O)N[C@@H]3C[C@@H]3F)cnc12` (stereo partly drawn) [Example K375], the half-maximal degradation concentration (DC50) in test [1] is more than 100 nM; in test [2], 1 to 10 nM; in test [3], more than 100 nM.
Consider `CNc1cc(Nc2cccn(-c3ccc(C(=O)N4CCC45CN(c4ncc(C#Cc6ccc7c(c6)n(C)c(=O)n7C6CCC(=O)NC6=O)cn4)C5)cn3)c2=O)nn2c(C(=O)N[C@@H]3C[C@@H]3F)cnc12` (stereo partly drawn) [Example K376], for which the half-maximal degradation concentration (DC50) in test [1] is more than 100 nM; in test [2], 10 to 100 nM; in test [3] it was more than 100 nM.
Regarding `CNc1cc(Nc2cccn(-c3ccc(C(=O)N4CCN([C@H]5CC[C@@H](c6ccc(-c7ccc8c(c7)n(C)c(=O)n8C7CCC(=O)NC7=O)cc6)CC5)CC4)cn3)c2=O)nn2c(C(=O)N[C@@H]3C[C@@H]3F)cnc12` (stereo partly drawn) [Example K377], the DC50 is more than 100 nM in test [1], less than 1 nM in test [2] and more than 100 nM in test [3].
As for `CNc1cc(Nc2cccn(-c3ccc(C(=O)N4CCN(c5ccc(-c6ccc7c(c6)n(C)c(=O)n7C6CCC(=O)NC6=O)cn5)C(=O)C4)cn3)c2=O)nn2c(C(=O)N[C@@H]3C[C@@H]3F)cnc12` (stereo partly drawn) [Example K378], the DC50 in test [1] is more than 100 nM; in test [2], less than 1 nM; in test [3], more than 100 nM.
Consider `CNc1cc(Nc2cccn(-c3ccc(C(=O)N4CCN(CCCOCCc5ccc(-c6ccc7c(c6)n(C)c(=O)n7C6CCC(=O)NC6=O)cc5)CC4)cn3)c2=O)nn2c(C(=O)N[C@@H]3C[C@@H]3F)cnc12` (stereo partly drawn) [Example K379], for which the DC50 is more than 100 nM in test [1], less than 1 nM in test [2] and more than 100 nM in test [3].
Take `CNc1cc(Nc2cccn(-c3ccc(C(=O)N4CCN([C@H]5CC[C@H](c6ccc(-c7ccc8c(c7)n(C)c(=O)n8C7CCC(=O)NC7=O)cc6)CC5)CC4)cn3)c2=O)nn2c(C(=O)N[C@@H]3C[C@@H]3F)cnc12` (stereo partly drawn) [Example K380]: the DC50 in test [1], in test [2] and in test [3] was less than 1 nM in each case.
As to `CNc1cc(Nc2cccn(-c3ccc(C(=O)N4CCC(N5CC(N6CCN(c7ccc8c(c7)n(C)c(=O)n8C7CCC(=O)NC7=O)CC6)C5)CC4)cn3)c2=O)nn2c(C(=O)N[C@@H]3C[C@@H]3F)cnc12` (stereo partly drawn) [Example K381], the half-maximal degradation concentration (DC50) in test [1] was more than 100 nM; in test [2], less than 1 nM; in test [3], less than 1 nM.
For the molecule `CNc1cc(Nc2cccn(-c3ccc(C(=O)N4CC5(C4)CN(c4ncc(C#Cc6ccc7c(c6)n(C)c(=O)n7C6CCC(=O)NC6=O)cn4)C5)cn3)c2=O)nn2c(C(=O)NC3CC3F)cnc12` (stereo not drawn) [Example K382], the DC50 in test [1] is more than 100 nM; in test [2], less than 1 nM; in test [3], more than 100 nM.
Turning to `CNc1cc(Nc2cccn(-c3ccc(C(=O)N4CC5(CCN(c6ccc(-c7ccc8c(c7)n(C)c(=O)n8C7CCC(=O)NC7=O)cn6)CC5)C4)cn3)c2=O)nn2c(C(=O)N[C@@H]3C[C@@H]3F)cnc12` (stereo partly drawn) [Example K383], the 50% degradation concentration (DC50) in test [1] is less than 1 nM; in test [2], less than 1 nM; in test [3], more than 100 nM.
`CNc1cc(Nc2cccn(-c3ccc(C(=O)NC4CCC(C(=O)N5CCC6(CN(CC#Cc7ccc8c(c7)n(C)c(=O)n8C7CCC(=O)NC7=O)C6)C5)CC4)cn3)c2=O)nn2c(C(=O)N[C@@H]3C[C@@H]3F)cnc12` (stereo partly drawn) [Example K384]: the DC50 in test [1], in test [2] and in test [3] was more than 100 nM each time.
For the molecule `CNc1cc(Nc2cccn(-c3ccc(C(=O)N4CCC(c5ncc(-c6ccc7c(c6)n(C)c(=O)n7C6CCC(=O)NC6=O)cn5)CC4)cn3)c2=O)nn2c(C(=O)N[C@@H]3C[C@@H]3F)cnc12` (stereo partly drawn) [Example K385], the figures for the 50% degradation concentration (DC50) in test [1], in test [2] and in test [3] were less than 1 nM, less than 1 nM and more than 100 nM, respectively.
On to `CNc1cc(Nc2cccn(-c3ccc(C(=O)N4CCN(CCc5ccc6c(c5)n(C)c(=O)n6C5CCC(=O)NC5=O)CC4)cn3)c2=O)nn2c(C(=O)N[C@@H]3C[C@@H]3F)cnc12` (stereo partly drawn) [Example K386], for which the DC50 in test [1] was less than 1 nM; in test [2], more than 100 nM; in test [3], more than 100 nM.
Take `CNc1cc(Nc2cccn(-c3ccc(C(=O)N(C)Cc4ccc(-c5ccc6c(c5)n(C)c(=O)n6C5CCC(=O)NC5=O)cn4)cn3)c2=O)nn2c(C(=O)N[C@@H]3C[C@@H]3F)cnc12` (stereo partly drawn) [Example K387]: the values for the DC50 in test [1], in test [2] and in test [3] were less than 1 nM, more than 100 nM and more than 100 nM, respectively.

For the origin of these results see patent US20250051338A1, “TYK2 DEGRADERS AND USES THEREOF” (Kymera Therapeutics, Inc., priority 2021, published 2025).
